Patent US20260373164A1, “4(RS)-4-F4-NEUROPROSTANE DERIVATIVES (4-F4T-NEUROP) AND THEIR USE IN TREATING VENTILATOR INDUCED DIAPHRAGMATIC DYSFUNCTION AND OTHER DISEASES” (INSTITUT NATIONAL DE LA SANTÉ ET DE LA RECHERCHE MÉDICALE, priority 2022, published 2026)
“Also recorded” adds a separate entry of the source.

What was measured:
[1] = test system: mouse diaphragm muscle fibers; assay: Diaphragm muscle fibre atrophy (cross section area, fibre type) after 12 hours of mechanical ventilation in mice; format: in vivo; conditions: 10 μM, 12 h MV
Description: FIG. 3: A. Force frequency relationship of mice diaphragm muscle, after 12 hours of mechanical ventilation, treated or not with 10 μM 4F4t-NeuroP. […] Representative immunostaining of fast and slow diaphragm muscle fibers in mouse. Antibodies against fast- and slow-type myosin ATPase were used to perform immunostaining on cryosections of mouse diaphragm. Muscle membrane was counterstained with dystrophin antibodies. The staining was performed in diaphragm muscle 12 h after MV with or without 4F4t-NeuroP. Average cross-section area was quantified in each condition including all fibre type (B.) or by discriminating slow versus fast fibres (C.). D. Average distribution of Fast versus Slow twitch fibres in each condition. (*p<0.05 vs control)
6 hours of MV remains a rather short time of ventilation which represents a particular interest to explore proximal pathophysiological mechanisms of VIDD. As previously reported, 6 hours of mechanical ventilation is able to induce force deficit without histological alterations. However, 12 hours of mechanical ventilation can induce muscle atrophy by a mechanism mediated by RyR1 dependent SR Ca^2+-leak. The inventors therefore tested here the beneficial effect of 4F4t-NeuroP after 12 hours of mechanical ventilation.

[2] = test system: RyR2; conditions: cited from earlier work
[3] = test system: mouse diaphragm (VIDD); assay: Diaphragm force-frequency relationship after 6 h of mechanical ventilation (murine model of VIDD); format: in vivo, C57/BL6 mice; conditions: for prevention of VIDD in murine model: general statement; for prevention of VIDD in murine model / protection against mechanical ventilation (force-frequency relationship): mice; for protection against mechanical ventilation (force-frequency relationship): IV
Description: 35 adult male mice (10 to 12 weeks old, 25 to 30 g) C57/BL6 mice were separated into five groups. Three groups were intubated with a 22-gauge angio-catheter and mechanically ventilated for 6 consecutive hours using a volume-driven small-animal ventilator (Minivent®, Harvard Apparatus, Saint-Laurent, Canada). Tidal volume was established at […] body weight with a respiratory rate of 150 breaths/min, a positive end-expiratory pressure (PEEP) level from 2 to 4 cm H2O and a fraction of inspired oxygen of 0.21. Non-spontaneous ventilation was defined as a lack of diaphragm contractile activity attested by repetitive stereotypical deflections observed in the airway pressure curve.
The mice were divided into two groups. The first group (control) received methanol, at the volume corresponding to the equivalent volume brought with 4F4t-NeuroP, intravenously (IV) infused over a 5-minute period, 20 minutes before start of MV. The second group of mice received 4F4t-NeuroP intravenously (IV) infused over a 5-minute period, 20 minutes before start of MV. The two groups were intubated and treated in an identical manner (see Matecki et al., 2016 for details^15).
At the end of the protocol of MV, the entire diaphragm was surgically excised and mice were euthanized, by exsanguination. Isometric contractile properties were assessed as described previously in detail (Matecki et al., 2016^15). The excised diaphragm strip was mounted into jacketed tissue bath chambers filled with equilibrated and oxygenated Krebs solution. The muscles were supra-maximally stimulated using square wave pulses (Model S48; Grass Instruments, West Warwick, RI). The force-frequency relationship was determined by sequentially stimulating the muscles for 600 ms at 10, 20, 30, 50, 60, 80, 100 and 120 Hz with 1 minute between each stimulation train. After measurement of contractile properties, muscles were measured at Lo (the length at which the muscle produced maximal isometric tension), dried and weighted. For comparative purposes, diaphragmatic force production was normalized for total muscle strip cross-sectional area and expressed in N·cm^−2. The total muscle strip cross-sectional area was determined by dividing muscle weight by its length and tissue density (1.056 g/cm^3).
Mice were anesthetized and mechanically ventilated for 6 hours. Mice were randomized to receive or not at the beginning of the ventilation a single IV injection of 4F4t-NeuroP at concentrations ranging from 0.01-100 μM to build a dose-response curve of the force-frequency relationship in order to define the optimal concentration.
As for 4F4t-NeuroP, VB558 was injected intravenously into the mouse at a concentration of 1 and 10 μM before ventilating the mice for 6 hours.

[4] = target: T1, RyR1 (Mus musculus, UniProt E9PZQ0); assay: Ca2+ sparks frequency in saponin skinned EDL muscle fibres of post myocardial infarction (PMI) mice; format: cell-based; conditions: 1 μM 4F4t-NeuroP, acute incubation; EDL fibres from PMI mice
T1 construct: Fluo-4 Ca2+ sparks
T1 sequence (E9PZQ0 whole entry): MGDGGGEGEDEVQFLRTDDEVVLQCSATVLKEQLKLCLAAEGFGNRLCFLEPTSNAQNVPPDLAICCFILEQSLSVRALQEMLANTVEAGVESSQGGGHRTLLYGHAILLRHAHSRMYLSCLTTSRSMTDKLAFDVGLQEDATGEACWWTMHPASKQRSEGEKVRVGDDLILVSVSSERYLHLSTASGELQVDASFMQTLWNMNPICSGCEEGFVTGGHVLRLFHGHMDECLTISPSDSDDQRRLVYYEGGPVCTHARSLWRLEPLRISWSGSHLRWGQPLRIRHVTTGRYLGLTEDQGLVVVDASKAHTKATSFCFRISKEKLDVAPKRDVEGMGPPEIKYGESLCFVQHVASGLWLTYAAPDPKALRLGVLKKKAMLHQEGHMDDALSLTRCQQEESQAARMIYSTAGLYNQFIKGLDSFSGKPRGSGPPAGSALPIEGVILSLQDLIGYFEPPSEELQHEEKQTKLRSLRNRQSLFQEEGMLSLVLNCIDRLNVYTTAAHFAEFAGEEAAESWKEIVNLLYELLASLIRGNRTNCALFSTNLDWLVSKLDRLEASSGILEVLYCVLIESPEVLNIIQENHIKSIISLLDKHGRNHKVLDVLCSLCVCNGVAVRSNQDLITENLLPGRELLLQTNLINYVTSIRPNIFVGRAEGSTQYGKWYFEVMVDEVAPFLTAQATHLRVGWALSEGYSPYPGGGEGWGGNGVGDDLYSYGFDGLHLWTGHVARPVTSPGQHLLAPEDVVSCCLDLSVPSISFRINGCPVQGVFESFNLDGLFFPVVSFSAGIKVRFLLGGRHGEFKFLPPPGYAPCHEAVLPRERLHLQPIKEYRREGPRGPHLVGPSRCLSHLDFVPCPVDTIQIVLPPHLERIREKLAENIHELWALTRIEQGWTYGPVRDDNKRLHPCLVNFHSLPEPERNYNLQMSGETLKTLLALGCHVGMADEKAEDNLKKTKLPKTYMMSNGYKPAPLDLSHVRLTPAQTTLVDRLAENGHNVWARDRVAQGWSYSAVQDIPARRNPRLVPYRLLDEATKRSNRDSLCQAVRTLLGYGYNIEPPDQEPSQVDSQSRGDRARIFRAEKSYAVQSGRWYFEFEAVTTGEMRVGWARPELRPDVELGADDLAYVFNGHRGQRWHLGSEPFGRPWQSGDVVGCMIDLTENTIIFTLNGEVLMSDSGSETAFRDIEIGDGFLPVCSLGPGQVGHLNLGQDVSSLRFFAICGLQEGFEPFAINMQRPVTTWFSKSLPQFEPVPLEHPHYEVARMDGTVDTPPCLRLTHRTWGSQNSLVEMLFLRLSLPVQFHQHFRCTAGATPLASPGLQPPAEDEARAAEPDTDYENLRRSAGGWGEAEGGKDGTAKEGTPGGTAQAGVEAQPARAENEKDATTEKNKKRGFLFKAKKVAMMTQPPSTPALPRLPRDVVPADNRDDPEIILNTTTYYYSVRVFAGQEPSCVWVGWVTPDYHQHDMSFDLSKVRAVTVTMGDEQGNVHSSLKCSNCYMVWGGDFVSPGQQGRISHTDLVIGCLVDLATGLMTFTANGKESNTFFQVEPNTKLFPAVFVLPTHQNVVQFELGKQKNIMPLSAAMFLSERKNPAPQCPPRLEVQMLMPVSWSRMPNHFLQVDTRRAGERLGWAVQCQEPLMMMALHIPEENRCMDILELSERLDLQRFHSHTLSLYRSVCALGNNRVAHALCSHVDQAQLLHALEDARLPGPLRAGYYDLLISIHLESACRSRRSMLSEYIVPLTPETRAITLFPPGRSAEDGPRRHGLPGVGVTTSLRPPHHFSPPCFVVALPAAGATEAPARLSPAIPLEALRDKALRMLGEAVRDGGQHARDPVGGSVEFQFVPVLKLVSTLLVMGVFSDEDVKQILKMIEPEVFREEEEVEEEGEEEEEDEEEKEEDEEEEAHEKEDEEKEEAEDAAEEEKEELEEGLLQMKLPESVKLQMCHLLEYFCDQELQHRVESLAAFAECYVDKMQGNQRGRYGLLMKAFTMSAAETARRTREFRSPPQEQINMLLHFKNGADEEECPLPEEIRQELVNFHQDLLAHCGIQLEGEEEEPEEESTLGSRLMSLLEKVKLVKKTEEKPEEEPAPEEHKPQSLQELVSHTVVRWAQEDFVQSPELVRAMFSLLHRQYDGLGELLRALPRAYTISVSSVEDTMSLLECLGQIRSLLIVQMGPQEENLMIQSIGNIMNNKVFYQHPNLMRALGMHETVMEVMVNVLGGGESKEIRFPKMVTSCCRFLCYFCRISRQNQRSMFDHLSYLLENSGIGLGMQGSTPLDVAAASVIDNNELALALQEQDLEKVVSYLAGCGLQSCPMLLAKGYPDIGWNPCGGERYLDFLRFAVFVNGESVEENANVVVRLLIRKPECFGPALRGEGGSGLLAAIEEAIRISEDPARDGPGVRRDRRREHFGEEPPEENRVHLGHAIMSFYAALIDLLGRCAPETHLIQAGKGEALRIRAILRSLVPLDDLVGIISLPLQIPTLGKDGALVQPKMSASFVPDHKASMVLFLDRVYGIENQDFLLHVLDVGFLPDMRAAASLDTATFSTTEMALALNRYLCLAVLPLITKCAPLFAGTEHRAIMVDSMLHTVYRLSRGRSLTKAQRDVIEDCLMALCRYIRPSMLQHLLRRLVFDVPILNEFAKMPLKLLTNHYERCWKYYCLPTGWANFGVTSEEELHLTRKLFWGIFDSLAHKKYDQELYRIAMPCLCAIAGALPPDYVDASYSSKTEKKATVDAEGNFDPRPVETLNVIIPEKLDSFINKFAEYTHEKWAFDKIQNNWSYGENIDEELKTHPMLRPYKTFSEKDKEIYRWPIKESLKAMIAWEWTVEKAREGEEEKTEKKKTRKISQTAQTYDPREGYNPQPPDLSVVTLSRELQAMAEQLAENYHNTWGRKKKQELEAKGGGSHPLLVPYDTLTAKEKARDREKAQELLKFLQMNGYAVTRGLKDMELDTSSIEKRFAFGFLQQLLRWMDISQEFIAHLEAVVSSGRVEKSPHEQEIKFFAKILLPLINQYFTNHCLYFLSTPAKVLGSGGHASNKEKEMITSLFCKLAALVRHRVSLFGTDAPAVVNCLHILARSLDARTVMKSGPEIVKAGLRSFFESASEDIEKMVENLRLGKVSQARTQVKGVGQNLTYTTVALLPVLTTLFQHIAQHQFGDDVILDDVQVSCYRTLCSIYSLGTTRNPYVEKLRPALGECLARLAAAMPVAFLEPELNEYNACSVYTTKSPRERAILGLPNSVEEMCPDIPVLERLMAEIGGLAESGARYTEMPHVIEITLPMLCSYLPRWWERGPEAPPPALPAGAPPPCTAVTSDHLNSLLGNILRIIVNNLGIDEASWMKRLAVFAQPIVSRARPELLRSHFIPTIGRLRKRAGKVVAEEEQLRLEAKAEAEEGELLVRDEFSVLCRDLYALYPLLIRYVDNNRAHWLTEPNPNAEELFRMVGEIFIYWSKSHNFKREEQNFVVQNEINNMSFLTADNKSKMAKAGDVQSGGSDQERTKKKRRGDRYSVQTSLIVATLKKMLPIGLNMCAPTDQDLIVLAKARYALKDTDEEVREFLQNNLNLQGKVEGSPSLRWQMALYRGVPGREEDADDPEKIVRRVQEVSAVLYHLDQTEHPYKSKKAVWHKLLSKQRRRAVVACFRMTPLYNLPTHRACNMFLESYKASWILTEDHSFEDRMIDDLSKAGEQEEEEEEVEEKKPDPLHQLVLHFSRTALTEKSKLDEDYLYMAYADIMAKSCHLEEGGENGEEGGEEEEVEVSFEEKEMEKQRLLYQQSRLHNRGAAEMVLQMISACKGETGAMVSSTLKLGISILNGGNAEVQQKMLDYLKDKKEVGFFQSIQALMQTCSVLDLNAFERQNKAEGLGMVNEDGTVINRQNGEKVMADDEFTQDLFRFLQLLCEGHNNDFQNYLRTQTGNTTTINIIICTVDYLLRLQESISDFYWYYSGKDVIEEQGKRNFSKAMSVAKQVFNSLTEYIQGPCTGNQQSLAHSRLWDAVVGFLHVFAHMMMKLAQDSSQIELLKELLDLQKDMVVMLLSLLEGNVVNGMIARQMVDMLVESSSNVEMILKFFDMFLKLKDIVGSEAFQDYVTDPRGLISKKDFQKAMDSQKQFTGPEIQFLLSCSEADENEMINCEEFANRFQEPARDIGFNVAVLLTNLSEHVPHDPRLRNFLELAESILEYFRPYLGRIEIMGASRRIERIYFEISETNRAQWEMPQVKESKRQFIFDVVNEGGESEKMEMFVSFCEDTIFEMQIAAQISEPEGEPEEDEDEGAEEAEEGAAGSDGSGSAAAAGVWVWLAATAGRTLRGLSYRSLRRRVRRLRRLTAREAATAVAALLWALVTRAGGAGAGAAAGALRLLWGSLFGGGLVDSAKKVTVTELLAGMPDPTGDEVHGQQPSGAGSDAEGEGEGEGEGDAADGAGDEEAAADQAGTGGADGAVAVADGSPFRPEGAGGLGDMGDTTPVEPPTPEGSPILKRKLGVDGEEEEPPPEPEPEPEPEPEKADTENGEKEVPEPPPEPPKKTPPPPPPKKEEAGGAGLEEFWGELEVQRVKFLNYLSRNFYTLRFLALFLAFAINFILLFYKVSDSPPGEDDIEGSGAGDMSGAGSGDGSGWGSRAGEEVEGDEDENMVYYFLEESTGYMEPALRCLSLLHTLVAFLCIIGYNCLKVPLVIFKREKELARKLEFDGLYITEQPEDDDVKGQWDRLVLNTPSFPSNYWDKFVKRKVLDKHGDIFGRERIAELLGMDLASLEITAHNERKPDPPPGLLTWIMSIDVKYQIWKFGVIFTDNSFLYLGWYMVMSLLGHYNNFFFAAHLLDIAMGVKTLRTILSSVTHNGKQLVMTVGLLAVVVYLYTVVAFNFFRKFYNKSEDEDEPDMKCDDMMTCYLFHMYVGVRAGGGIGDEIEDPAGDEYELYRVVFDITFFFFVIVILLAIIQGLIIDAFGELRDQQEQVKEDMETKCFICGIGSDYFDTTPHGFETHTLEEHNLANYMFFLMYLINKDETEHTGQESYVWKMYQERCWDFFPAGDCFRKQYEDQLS

[5] = test system: prostanoid receptors; assay: In vitro binding assay on prostanoid receptors (agonist or antagonist effect); conditions: effects higher than 50% considered significant
Description: Prostaglandin (or prostanoid) receptors represent a family of cell surface membrane receptors known to bind and respond principally to metabolites of the polyunsaturated fatty acid (PUFA), arachidonic acid. As some of them are known to modulate cAMP production or intracellular calcium concentration, and based on the chemical structure of neuroprostanes (i.e DHA derivatives), the inventors performed an in vitro binding assay to specifically evaluate the potential agonist or antagonist effect of VB558 on established prostanoid receptors. Results showing an inhibition (or stimulation for assays run in basal conditions) higher than 50% are considered to represent significant effects of the test compounds.

[6] = Pharmacokinetic study in pigs, plasmatic concentration after IV bolus; format: in vivo, piglets; conditions: single IV bolus 0.250 mg·kg^−1, 3 pigs
Description: In a first set of experiment, a pharmacokinetic study was performed on 3 control pig injected with a single bolus of VB558 (0.250 mg·kg^−1). Blood samples were collected every regularly during 12 hours to evaluate the plasmatic concentration of VB558. […] In order to test the preventing effect of VB558 in the piglet model, the protocol of IV injection was slightly adapted to the duration of the mechanical ventilation (i.e 72 hours). The inventors injected a bolus of 0.250 mg·kg^−1 then a maintenance dose of 0.025 mg·kg^−1 every 12 hours (FIG. 5B). The VB558 group was compared to a group of piglets (placebo) receiving the same amount of solvent (methanol) (FIG. 5B).

[7] = test system: ventricular cardiomyocytes derived from DMD hIPSc (RyR2); assay: Diastolic level of calcium in ventricular cardiomyocytes derived from DMD hIPSc (indo-1); format: cell-based, human
Description: FIG. 6: Effect of Hexanor on the diastolic level of Calcium in ventricular cardiomyocytes derived from DMD and control hIPSc. The cardiomyocytes were loaded with indo-1 to assess in a ratiometric manner the intracellular level of calcium. […] A. The level of calcium is higher in DMD compared to control cells. This is prevented by hexanor (1 μM).
The inventors then tested the impact of VB558 on the diastolic level of Calcium in ventricular cardiomyocytes derived from Duchenne muscular dystrophy (DMD).

SMILES | distribution of fiber type (slow vs fast) [1] | muscle fibre atrophy / cross section area (CSA) [1] | RyR2 mediated Ca2+-leak in cardiomyocytes ([2]; previous study [30]) | cardiac anti-arrhythmic effect, RyR2 stabilization ([2]; previously reported (ref. 21)) | prevention of VIDD in murine model [3] | prevention of VIDD / diaphragm weakness (force-frequency relationship) ([3]; single IV injection of 4F4t-NeuroP 0.01-100 μM, 6 h MV) | concentration giving maximal effect in VIDD prevention ([3]; single IV injection, dose response 0.01-100 μM, 6 h MV, maximal force at 120 Hz) | Ca2+-sparks frequency / RyR1-dependent leaky behavior [4] | significant effect (inhibition or stimulation higher than 50%) at prostanoid receptors [5] | Tmax ([6]; pig, plasma, 0.25 mg/kg, read-out: time of plasmatic peak) | biodistribution [6] | dissipation of plasmatic peak [6] | diastolic level of calcium ([7]; 1 μM, without isoproterenol, DMD hIPSc cardiomyocytes) | RyR2 dysfunction in DMD ([7]; DMD-derived ventricular cardiomyocytes) | resting calcium under isoproterenol stimulation ([7]; hexanor, Iso 1 μM, DMD hIPSc cardiomyocytes) | protection against mechanical ventilation (force-frequency relationship) ([3]; VB558 1 μM, 6 h MV) | protection against mechanical ventilation (force-frequency relationship) ([3]; VB558 10 μM, 6 h MV)
CC/C=C\C/C=C\C/C=C\C[C@@H]1[C@H](/C=C/C(O)CCC(=O)O)[C@@H](O)C[C@H]1O (mixture of isomers) [Compound 4F4t-NeuroP, 4(RS)-4-F4t-Neuroprostane] | without changing the distribution of fiber type | prevents diaphragm muscle fibres atrophy after 12 hours of mechanical ventilation independently of the fibre phenotype; also recorded: prevents the reduction of cross section area (CSA), independently of the muscle fiber phenotype | able to prevent RyR2 mediated Ca^2+-leak in cardiomyocytes | the active molecule was not DHA itself but a non-enzymatic metabolite of DHA | prevent with a high efficiency VIDD | prevents diaphragm weakness induced after 6 h of mechanical ventilation; also recorded: full prevention of VIDD | about 0.3 μM | full prevention of this RyR1-dependent leaky behavior | – | – | – | – | – | – | – | – | –
CC/C=C\C[C@@H]1[C@H](/C=C/C(O)CCC(=O)O)[C@@H](O)C[C@H]1O (mixture of isomers) [VB558, (E)-6-((1S,2R,3R,5S)-3,5-dihydroxy-2-((Z)-pent-2-en-1-yl)cyclopentyl)-4-hydroxyhex-5-enoic Acid] | – | – | – | – | prevents VIDD; also recorded: prevent with a high efficiency VIDD | – | – | – | not observed at any of the receptors studied | 5 to 10 min | fast biodistribution | dissipated rapidly within an hour | prevented | may be prevented | full normalization of the resting calcium | significant protection against mechanical ventilation in a range similar to that was obtained with 4F4t-NeuroP | significant protection against mechanical ventilation in a range similar to that was obtained with 4F4t-NeuroP
